The test system of assay [1] is saponin-permeabilized ventricular cardiomyocytes (sp-vCM) from RyR2R2474S/+ mice. The assay can be described thus: Ca2+ wave decay in saponin-permeabilized ventricular cardiomyocytes, RyR2R2474S/+ mice. In kind it is cell-based. The conditions noted are these: 10 µM, result in words. An excerpt: (§1) • Figure 1: Synthesis scheme showing the synthesis of multifunctional compounds with cyclopropanol residues based on 1,4 -benzothiazepines. The respective reaction conditions (a) to (i) are as follows: (a) Jones reagent, aceton; (b) H2SO4, EtOH; (c) EtMgBr, Ti(OiPr)4, EtzO; (d) t-BuMe2SiOSO2CF3, 2,6-lutidine, DCM; (e) Hz, Pd/C, THF; (f) Dess-Martin reagent, DCM; (g) K2CO3, 1,4-dioxane; (h) N2H4*H2O, EtOH; (i) Na(CH3COO)3BH, 1,2-dichloroethane; (j) NaH, DMF; (k) aq. HF (55%), MeCN or 1 M n-Bu4NF in THF or KF, Et3N*HCl, MeOH. m,n = 2-8. • Figure 2: Synthesis scheme showing the synthesis of multifunctional compounds with cyclopropanol residues based on the "open" analogs 1,4 -benzothiazepines (i.e. 3-[(4-methoxyphenyl)oxy]-and 3-[(4-methoxyphenylthio)]propane-1-amine derivatives). […] Values represent the mean ± S.D., *** P < 0.0005, **** P < 0.0001 vs. DMSO by unpaired t test; n = 6 - 28. • Figure 6: Time-lapse fluorescence measurements using TECAN Spark 20M plate reader with HEK293 cells expressing WT RyR2 and R-CEPIA1er indicator. […] Fluorescence ratio F/F0, where F0 - average fluorescence signal for the first 90 seconds, F- average fluorescence signal for the last 100 s, was taken for the calculations. […] Data sets were analyzed by unpaired Student's t-test. n.s. non-significant with P=0.59 for Dan, **, P<0.01 with P=0.003 for S36, and *, P<0.05 with P=0.019 for GM1869; (D, E, F) Relative changes in the decay time tau of Ca2+ transients from spontaneous Ca2+ waves (in control/drug) by Dan (D, 10µM), S36 (E, 10 µM), and GM1869 (F, 10 µM) in cardiomyocytes from WT and RyR2R2474S/+ mice. […] Rise times represent the tau values calculated by a mono-exponential fit of the Ca2+ transients from start to the peak of the signal. Ca2+ transients were recorded in control conditions and every 2 min (S36) or 4 min (GM1869) after drug application. **, P = 0.0065 for S36; ****, P = 0.000019 for GM1869, evaluated by paired Student's t-test. […] Decay times represent the tau values calculated by a mono-exponential fit of the Ca2+ transients from half maximum to baseline of the signal. […]

Assay [2] deals with RyR2-R2474S+/- iPSC cardiomyocytes. The assay can be described thus: Electrically induced Ca2+ transients in intact iPSC-derived cardiomyocytes, RyR2-R2474S+/-. In kind it is cell-based, human. The conditions noted are these: estimated from non-linear fit; for IC50: read-out: IC50 values for the rise times of Ca2+ transients. From the text: (§2) • Figure 1: Synthesis scheme showing the synthesis of multifunctional compounds with cyclopropanol residues based on 1,4 -benzothiazepines. The respective reaction conditions […] are as follows: (a) Jones reagent, aceton; (b) H2SO4, EtOH; (c) EtMgBr, Ti(OiPr)4, EtzO; (d) t-BuMe2SiOSO2CF3, 2,6-lutidine, DCM; (e) Hz, Pd/C, THF; (f) Dess-Martin reagent, DCM; (g) K2CO3, 1,4-dioxane; (h) N2H4*H2O, EtOH; (i) Na(CH3COO)3BH, 1,2-dichloroethane; (j) NaH, DMF; (k) aq. HF (55%), MeCN or 1 M n-Bu4NF in THF or KF, Et3N*HCl, MeOH. m,n = 2-8. • Figure 2: Synthesis scheme showing the synthesis of multifunctional compounds with cyclopropanol residues based on the "open" analogs 1,4 -benzothiazepines (i.e. 3-[(4-methoxyphenyl)oxy]-and 3-[(4-methoxyphenylthio)]propane-1-amine derivatives). […] Values represent the mean ± S.D., *** P < 0.0005, **** P < 0.0001 vs. DMSO by unpaired t test; n = 6 - 28. • Figure 6: Time-lapse fluorescence measurements using TECAN Spark 20M plate reader with HEK293 cells expressing WT RyR2 and R-CEPIA1er indicator. (a) R-CEPIA1er assay, control (0.1 v/v% DMSO) or 100 µM of compound 14a was injected at 90 seconds (arrow). Fluorescence ratio F/F0, where F0 - average fluorescence signal for the first 90 seconds, F- average fluorescence signal for the last 100 s, was taken for the calculations. (b-d) Dose-response effects of compounds 13 and 14 on [Ca^2+]ER in HEK293-RyR2-R-CEPIA1er cells. […] Data sets were analyzed by unpaired Student's t-test. n.s. non-significant with P=0.59 for Dan, **, P<0.01 with P=0.003 for S36, and *, P<0.05 with P=0.019 for GM1869; (D, E, F) Relative changes in the decay time tau of Ca2+ transients from spontaneous Ca2+ waves (in control/drug) by Dan (D, 10µM), S36 (E, 10 µM), and GM1869 (F, 10 µM) in cardiomyocytes from WT and RyR2R2474S/+ mice. […] Rise times represent the tau values calculated by a mono-exponential fit of the Ca2+ transients from start to the peak of the signal. Ca2+ transients were recorded in control conditions and every 2 min (S36) or 4 min (GM1869) after drug application. **, P = 0.0065 for S36; ****, P = 0.000019 for GM1869, evaluated by paired Student's t-test. […] Decay times represent the tau values calculated by a mono-exponential fit of the Ca2+ transients from half maximum to baseline of the signal. Ca2+ transients were recorded in control conditions and every 2 min (S36) or 4 min (GM1869) after drug application. Data sets were analyzed by paired Student's t-test. n.s., P = 0.14; **, P = 0.0043. […] Data from each experiment were normalized to the first transient recorded. […]

Assay [3] relates to RyR2-WT iPSC cardiomyocytes. Description: Electrically induced Ca2+ transients in intact iPSC-derived cardiomyocytes, RyR2-WT. Format: cell-based, human. The conditions noted are these: estimated from non-linear fit; for IC50: read-out: IC50 values for the rise times of Ca2+ transients.
Text: as §2

Assay [4] has as its system saponin-permeabilized ventricular cardiomyocytes (sp-vCM) from WT mice. Description: Ca2+ wave decay in saponin-permeabilized ventricular cardiomyocytes, WT mice. The conditions noted are these: 10 µM, result in words. In kind it is cell-based.
Text: as §1

Setting [5] is: Homo sapiens, iPSC, read-out: EC50 values for the decay times of Ca2+ transients.

Consider `COc1ccc2c(c1)CN(CCCCN(CCCCC1(O)CC1)CCCCC1(O)CC1)CCS2` [Compound 14a, 1,1'-(((4-(7-Methoxy-2,3-dihydrobenzo[1,4-f]thiazepin-4(5H)-yl)butyl)azanediyl)bis(butane-4,1-diyl))bis(cyclopropan-1-ol)], for which the “Relative changes in the decay time tau of Ca2+ transients from spontaneous Ca2+ waves (in control/drug)” value in assay [1] and in assay [4] was “significantly below 1” each time. In addition, the EC50 (commonly the concentration that produces a half-maximal response) was 0.071 nM in assay [2] (setting [5]) and 0.097 nM in assay [3] (setting [5]). Also, the IC50 (usually the concentration at which inhibition is half-maximal) was 0.045 nM in assay [2] (Homo sapiens, iPSC) and 0.025 nM in assay [3] (Homo sapiens, iPSC).
For `COc1ccc2c(c1)CN(C(=O)C(=O)O)CCS2` [Compound S36, reference compound], the “Relative changes in the decay time tau of Ca2+ transients from spontaneous Ca2+ waves (in control/drug)” value in assay [1] and in assay [4] was “not significantly different from 1” in each case. The IC50 in assay [2] (Homo sapiens, iPSC) was 0.04 nM; in assay [3] (Homo sapiens, iPSC), 0.15 nM. In addition, the “EC50 values for the decay times of Ca2+ transients” value in assay [2] and in assay [3] was “no EC50 values were obtained” in each case.

The values above are taken from EP4548971A1, “1,4-BENZOTHIAZEPINES AND RELATED COMPOUNDS WITH CYCLOPROPANOL GROUPS AS MULTI-TARGETED DRUGS” (Georg-August-Universität Göttingen Stiftung Öffentlichen …, priority 2023, dated 2025).
